Assay results as given in US6399614B1, “1-(N-phenylaminoalkyl)piperazine derivatives substituted at position 2 of the phenyl ring” (Recordati S.A. Chemical and Pharmaceutical Company, priority 1997, dated 2002).

How the values were obtained:
[1] = molecular target: T1, post-synaptic 5-HT1A receptor (Rattus norvegicus, UniProt P19327); assay: Inhibition of forepaw treading induced by 8-OH-DPAT in rats (post-synaptic antagonism); format: in vivo; settings: for ED50: rat, iv, read-out: Post-synaptic 5-HT1A ID50, heading: Post-synaptic 5-HT1A ID50, dose blocking 50% of forepaw treading induced by 1 mg/kg s.c. 8-OH-DPAT in rats, compound i.v.
T1 construct: from tissue; host or cells: whole animal, male Sprague-Dawley rats
T1 sequence (P19327 1-422): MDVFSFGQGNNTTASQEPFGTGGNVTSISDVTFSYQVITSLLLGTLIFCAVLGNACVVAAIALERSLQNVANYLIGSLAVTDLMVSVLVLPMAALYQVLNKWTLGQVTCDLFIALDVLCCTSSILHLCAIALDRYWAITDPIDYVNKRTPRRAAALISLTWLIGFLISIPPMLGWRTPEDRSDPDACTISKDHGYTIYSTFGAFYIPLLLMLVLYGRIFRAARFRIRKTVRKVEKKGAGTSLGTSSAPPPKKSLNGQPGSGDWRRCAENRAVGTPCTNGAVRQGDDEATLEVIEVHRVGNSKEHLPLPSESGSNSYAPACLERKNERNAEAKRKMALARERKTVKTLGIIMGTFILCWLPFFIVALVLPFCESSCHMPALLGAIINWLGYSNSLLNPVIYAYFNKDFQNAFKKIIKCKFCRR
Procedure: The inhibitory effect of 5-HT1A receptor antagonists on the forepaw treading induced in rats by subcutaneous injection of 8-OH-DPAT was evaluated by the method of Tricklebank (Tricklebank et al., Eur. J.Pharmacol., 117:15, 1985) with minor modifications as described below. Male Sprague-Dawley rats (150-175 g) obtained from Charles River (Italy), were housed in a climate-controlled room and maintained on a 12 h light/dark cycle with free access to food and water. On the day of experiment, rats were placed singly in clear plastic boxes. Rats were treated with reserpine, 1 mg/kg s.c., 18-24 h before the test to deplete intracellular stores of noradrenaline. For evaluation of antagonistic activity, compounds were i.v. administered 16 min before 8-OH-DPAT (1 mg/kg s.c.). Observation sessions of 30 s duration began 3 min after treatment with the agonist and were repeated every 3 min over a period of 15 min. The appearance of the forepaw treading symptom induced by postsynaptic stimulation of the 5HT1A receptors was noted, and its intensity was scored using a ranked intensity scale in which: 0=absent, 1=equivocal, 2=present and 3=intense. Behavioral scores for each treated rat were accumulated over the time course (5 observation periods) and expressed as mean values of 8-10 rats. A linear regression equation was used in order to evaluate ID50 values, defined as the dose of antagonist needed to block 50% of the forepaw treading intensity induced by 1 mg/kg 8-OH-DPAT administered subcutaneously.

[2] = test system: rhythmic bladder voiding contractions; assay: Volume-induced rhythmic bladder voiding contractions in anaesthetized rats; format: in vivo, rat; settings: Rattus norvegicus, intravenous; for ED (10 min disappearance of contractions): extrapolated dose inducing 10 min of disappearance of the contractions, anaesthetized rats, read-out: ED10 min; for ED50: extrapolated dose inducing a reduction of the number of contractions >30% in 50% of treated rats, read-out: ED50 (frequency)

fold less active than compound of Example 2, post-synaptic model ([1]; forepaw treading model in rats) | ED50 [1] [mg/kg] | SMILES | ED (10 min disappearance of contractions) [2] [mg/kg] | ED50 [2] [mg/kg]
 | 0.084 | COC(=O)c1ccccc1N(CCN1CCN(c2ccccc2OC)CC1)C(=O)C1CCCCC1 [Example 18, 1-[N-(2-methoxycarbonylphenyl)-N-cyclohexylcarbonyl-2-aminoethyl]-4-(2-methoxyphenyl)piperazine] | 0.101 | 0.017
 | 0.177 | COc1ccccc1N1CCN(CCN(C(=O)C2CCCCC2)c2ccccc2OC)CC1 [Example 23, 1-[N-(2-methoxyphenyl)-N-cyclohexylcarbonyl-2-aminoethyl]-4-(2-methoxyphenyl)piperazine] | 0.093 | 0.018

The next lines start with the compound.

SMILES | fold less active than compound of Example 2, post-synaptic model ([1]; forepaw treading model in rats) | ED50 [1] [mg/kg] | ED (10 min disappearance of contractions) [2] [mg/kg] | ED50 [2] [mg/kg]
COc1ccccc1N1CCN(CCN(C(=O)C2CCCCC2)c2ccccc2)CC1 [Compound A, 1-(N-phenyl-N-cyclohexylcarbonyl-2-aminoethyl)-4-(2-methoxyphenyl)piperazine, reference compound] | at least 10 fold | 0.35 | 0.65 | 0.033
COc1ccccc1N1CCN(CCN(C(=O)C2CCCCC2)c2ccccc2[N+](=O)[O-])CC1 [Example 2, 1-[N-(2-nitrophenyl)-N-cyclohexylcarbonyl-2-aminoethyl]-4-(2-methoxyphenyl) piperazine] |  | 0.036 | 0.06 | 0.009
O=C(C1CCCCC1)N(CCN1CCN(c2cccc3[nH]ccc23)CC1)c1ccccc1[N+](=O)[O-] [Example 13, 1-[N-(2-nitrophenyl)-N-cyclohexylcarbonyl-2-aminoethyl]-4-(4-indolyl)piperazine] |  | 0.082 | 0.266 | 0.029
